Laboratory results: paper PMC10064330, “Reversible Dual-Covalent Molecular Locking of the 14-3-3/ERRγ Protein–Protein Interaction as a Molecular Glue Drug Discovery Approach” (Journal of the American Chemical Society, 2023)

Biological target: T1, 14-3-3γ/ERRγ complex (Homo sapiens, UniProt P61981+P62508)
T1 construct: made in house; host or cells: E. coli NiCo21 (DE3)
Assay: Fluorescence anisotropy (FA): 14-3-3γ titration to fluorescein-ERRγ phosphopeptide with 100 μM compound
Type: binding
Details: for SF100 / stabilization (SF100) at high TCEP / stabilization of 14-3-3γ/ERRγ complex (SF100, fold): 100 μM compound; for SF100: 50 μM TCEP; for stabilization (SF100) at high TCEP: 1 mM TCEP; for stabilization of 14-3-3γ/ERRγ complex (SF100, fold): 24 h incubation; for stabilization factor SF100, Replicate 1 (Table S2) / stabilization factor SF100, Replicate 2 (Table S2) / stabilization factor SF100, Replicate 3 (Table S2) / stabilization factor SF100, Average (Table S2): KD DMSO control / apparent KD with 100 μM compound, 24 h; for stabilization factor SF100, Average (Table S2): average of three experiments
Procedure: The stabilization of the ERRγ/14-3-3γ complex by the molecular locks was assessed using a fluorescence anisotropy (FA) assay where 14-3-3γ was titrated into a fluorescently labeled ERRγ phosphopeptide in the absence or presence of a 100 μM molecular lock (Figure 2a,b); this compound concentration was selected based on a FA compound titration assay (Figure S1).
Experimental Section Biophysical Assays
14-3-3γ protein expression (FA, TSA, MS assays)
A pPROEX HTb expression vector encoding the human 14-3-3 protein gamma (14-3-3γ) with a N-terminal his6-tag was transformed by heat shock into NiCo21 (DE3) competent cells. Single colonies were cultured in 50 mL LB medium (100 µg/mL ampicillin). After overnight incubation at 37 °C, cultures were transferred to 2 L TB media (100 µg/mL ampicillin, 1 mM MgCl2) and incubated at 37 °C until an OD600 nm of 0.8 -1.2 was reached. Protein expression was then induced with 0.4 mM isopropyl-β-d-thiogalactoside (IPTG), and cultures were incubated overnight at 18 °C. Cells were harvested by centrifugation (8600 rpm, 20 minu tes, 4 °C) and resuspended in lysis buffer (50 mM Hepes, pH 8.0, 300 mM NaCl, 12.5 mM imidazole, 5 mM MgCl2, 2 mM βME) containing cOmplete™ EDTA-free Protease Inhibitor Cocktail tablets (1 tablet/100 ml lysate) and benzonase ( 5 µl/100 ml). After lysis using a C3 Emulsiflex-C3 homogenizer (Avestin), the cell lysate was cleared by centrifugation (20000 rpm, 30 minutes, 4 °C) and purified using Ni2+-affinity chromatography (Ni -NTA superflow cartridges, Qiagen). Typically two 5 mL columns (flow 5 mL/min) were use d for a 2 L culture in which the lysate was loaded on the column , washed with 10 CV wash buffer (50 mM Hepes, pH 8.0, 300 mM NaCl, 25 mM imidazole, 2 mM βME), and eluted in several fractions (2-4 CV) of elution buffer (50 mM Hepes, pH 8.0, 300 mM NaCl, 250 mM imidazole, 2 mM βME). Fractions containing the 14 -3-3 protein were combined and dialyzed into 25 mM HEPES pH 8.0, 100 mM NaCl, 10 mM MgCl2, 500 µM TCEP. Finally, the protein was concentrated to ∼60 mg/mL, analyzed Q-Tof LC/MS, and aliquots were flash-frozen for storage at −80 °C.
14-3-3σΔc C38N protein expression (Crystallography)
A pPROEX HTb expression vector encoding the human 14-3-3 protein sigma truncated after T231 (14-3-3σΔc), mutated C38N, and containing a N-terminal his6-tag was transformed by heat shock into NiCo21 (DE3) competent cells. Single colonies were cultured in 50 mL LB medium (100 µg/mL ampicillin). After overnight incubation at 37 °C, cultures were transferred to 2 L TB media (100 µg/mL ampicillin, 1 mM MgCl2) and incubated at 37 °C until an OD600 nm of 0.8-1.2 was reached. Protein expression was then induced with 0.4 mM isopropyl-β-d-thiogalactoside (IPTG), and cultures were incubated overnight at 18 °C. Cells were harvested by centrifugation (8600 rpm, 20 minutes, 4 °C) and resuspended in lysis buffer (50 mM Hepes, pH 8.0, 300 mM NaCl, 12.5 mM imidazole, 5 mM MgCl2, 2 mM βME) containing cOmplete™ EDTA-free Protease Inhibitor Cocktail tablets (1 tablet/ 100 ml lysate) and benzonase (5 µl/ 100 ml). After lysis using a C3 Emulsiflex-C3 homogenizer (Avestin), […]
chromatography (Ni-NTA superflow cartridges, Qiagen). Typically two 5 mL columns were used for a 2 L culture in which the lysate was loaded on the column , washed with 10 CV wash buffer (50 mM Hepes, pH 8.0, 300 mM NaCl, 25 mM imidazole, 2 mM βME), and eluted with several fractions (2 -4 CV) of elution buffer (50 mM Hepes, pH 8.0, 300 mM NaCl, 250 mM imidazole, 2 mM βME). Fractions containing the 14-3-3 protein were combined and dialyzed into 25 mM HEPES pH 8.0, 200 mM NaCl, 10 mM MgCl 2, 2 mM βME. In addition, 1 mg TEV was added for each 100 mg purified protein to remove the purification tag. The cleaved sample was then again loaded on a 10 mL Ni-NTA column to separate the cleaved product from the expression tag and residual uncleaved protein. The flowthrough was loaded on a Superdex 75 pg 16/60 size exc lusion column (GE Life Sciences) using […]

T1 sequence (P61981 whole entry, other chains not shown): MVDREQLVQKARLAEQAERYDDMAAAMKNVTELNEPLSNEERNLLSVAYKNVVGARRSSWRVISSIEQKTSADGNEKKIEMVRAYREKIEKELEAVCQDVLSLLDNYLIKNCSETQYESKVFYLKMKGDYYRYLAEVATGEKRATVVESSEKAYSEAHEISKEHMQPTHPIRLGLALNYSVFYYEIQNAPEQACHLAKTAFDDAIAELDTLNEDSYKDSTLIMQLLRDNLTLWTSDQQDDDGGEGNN

Row | SMILES | SF100 | stabilization (SF100) at high TCEP | stabilization of 14-3-3γ/ERRγ complex (SF100, fold) | stabilization factor SF100, Replicate 1 (Table S2) | stabilization factor SF100, Replicate 2 (Table S2) | stabilization factor SF100, Replicate 3 (Table S2) | stabilization factor SF100, Average (Table S2)
1 | CN(C)CCSSCCN(C)C(=O)c1cccc(F)c1 [compound 1, reference compound] | 5 | completely abolished | five-fold | 5.3 | 3.7 | 4.6 | 4.6
2 | CN(C)CCNC(=O)c1ccc(C=O)c(F)c1 [compound 3] | – | – | 1 | 1.0 | 1.0 | 0.9 | 1.0
3 | CN(C)CCSSCCN(C)C(=O)c1ccc(C=O)c(F)c1 [compound 5] | – | completely abolished | – | 27.0 | 17.8 | 16.5 | 20.4
4 | CN(C)CCSSCCN(C)C(=O)c1cc(Br)cc(C=O)c1 [compound 10] | 37 | completely abolished | – | 37.6 | 34.1 | 38.8 | 36.9
